≈ marks a conversion by molar mass, not a printed value.
How the values were obtained:
[1] = system: Mycobacterium tuberculosis; test: Antimycobacterial activity against Mycobacterium tuberculosis H37Ra after 5 days by two-fold dilution method; format: functional; details: 120 h
[2] = system: Mycobacterium tuberculosis; test: Antimycobacterial activity against Mycobacterium tuberculosis H37Rv after 30 days by agar microdilution method; format: functional

Structure (SMILES) | MIC [1] [µg/mL] | MIC [2] [µg/mL]
CC1(C)CCc2cc(C(C#Cc3ccccc3)N3CCCCC3)ccc2O1 (stereo unspecified) | > 12.5 | 6.25 (≈ 17.4 µM)
CCOC(=O)[C@H]1N[C@@H](c2ccc(OC)cc2)[C@@]2([N+](=O)[O-])C(c3ccc(OC)cc3)Oc3ccccc3[C@@H]12 (relative stereo) | > 12.5 | > 12.5
CCOC(=O)[C@H]1N[C@@H](c2ccc([N+](=O)[O-])cc2)[C@@]2([N+](=O)[O-])C(c3ccc(OC)cc3)Oc3ccccc3[C@@H]12 (relative stereo) | > 12.5 | 12.5 (≈ 24.1 µM)
CC1(C)CCc2cc(C(C#Cc3ccccc3)N3CCOCC3)ccc2O1 (stereo unspecified) | > 12.5 | 12.5 (≈ 34.6 µM)
CCOC(=O)[C@H]1N[C@@H](c2ccc(OC)cc2)[C@@H]([N+](=O)[O-])[C@@H]1c1ccc2c(c1)CCC(C)(C)O2 (relative stereo) | > 12.5 | > 12.5
CCCCCC#CC(c1ccc2c(c1)CCC(C)(C)O2)N1CCOCC1 (stereo unspecified) | > 12.5 | 3.12 (≈ 8.78 µM)
CCOC(=O)[C@H]1N[C@@H](c2ccccc2)[C@@H]([N+](=O)[O-])[C@@H]1c1ccc2c(c1)CCC(C)(C)O2 (relative stereo) | > 12.5 | 12.5 (≈ 29.4 µM)
NNC(=O)c1ccncc1 [ISONIAZID] |  | 0.75 (≈ 5.47 µM)
CCCCCCC#CC(c1ccc2c(c1)CCC(C)(C)O2)N1CCOCC1 (stereo unspecified) | > 12.5 | 
CCCCCCC#CC(c1ccc2c(c1)CCC(C)(C)O2)N1CCCCC1 (stereo unspecified) | > 12.5 | 1.56 (≈ 4.24 µM)
CC[C@@H](CO)NCCN[C@@H](CC)CO [ETHAMBUTOL] |  | 3.25 (≈ 15.9 µM)
CCOC(=O)[C@H]1N[C@@H](c2cccc([N+](=O)[O-])c2)[C@@H]([N+](=O)[O-])[C@@H]1c1ccc2c(c1)CCC(C)(C)O2 (relative stereo) | > 12.5 | 12.5 (≈ 26.6 µM)
